Test results as given in patent US20080233251A1, “Method and Apparatus for Sterilizing Containers” (priority 2005, published 2008).
“And” between values parts separate entries of the source, which are not always exact repeats. Equal entries are not always repeated. Where two headings read alike, the source gives them in different places.

What was measured:
Format in all cases: cell-based
[1] = tested on: B. subtilis var. globigii (ATCC 9372); settings: surviving count per replicate strip (replicates 1-5), 50° C., inoculum 10^6
Excerpt: (§1) The following examples illustrate the efficacy of the method of the present invention. The experiments were designed to identify the conditions optimal for polymer sterilization and also explore the boundary areas to determine the conditions limiting the efficacy of the treatment. Each polymer strip was inoculated by drop spotting approximately 100 micro-liters and coating the surface by swabbing the surface of the polyethylene strip. The culture was allowed to dry before sterilization. Each strip of polyethylene was treated by vigorously agitating the strip in the appropriate treatment solutions. Each treated polymer strip was then treated with catalase to inactivate residual peroxide, swabbed and plated using TGE incubated at 35° C. for two days.
In Table One, a NaOH control, an inoculated untreated control, and two methods of the present invention were measured and the results set forth in Table 1. Five replicate polymer strips were used for each of the two methods of the present invention. A log measurement value is provided below each of the non-log values. The first method uses hydrogen peroxide first and then an alkaline solution of sodium hydroxide. The second method uses an alkaline solution of sodium hydroxide first and then hydrogen peroxide. The sterilization was conducted at 50° C.

[2] = tested on: B. subtilis var. globigii (ATCC 9372); settings: for bactericidal effect (in words): text on Table Two; for Average: average of the logCFU/Swab replicates; for logCFU/Swab: log of surviving count per replicate (1-5); for logCFU/Swab / CFU/Swab: unagitated; for CFU/Swab: surviving count per replicate (1-5), contact times in label
Procedure: as §1, with “The” for “The following examples illustrate the efficacy of the method of the present invention. The”
A log measurement value is provided below each of the non-log values. The sterilization was conducted at 50° C.

[3] = tested on: B. subtilis var. globigii (ATCC 9372); settings: 35° C., 30 seconds; for CFU/Swab: surviving count per replicate (1-5)
Procedure: as §1, with “The” for “The following examples illustrate the efficacy of the method of the present invention. The”
In Table Three, a solution of 0.1 Normal potassium hydroxide (KOH) was utilized with a solution of 3% hydrogen peroxide at a temperature of 35° C. for 30 seconds.

[Na+].[OH-] [1M NaOH Control, sodium hydroxide]
CFU/Swab [1]: 5,700 CFU/Swab and 210 CFU/Swab

[Na+].[OH-] [50° C. 10 s 0.25M NaOH Control, sodium hydroxide]
bactericidal effect (in words) ([2]; 50° C.): no bacteriocidal effect
Average [2]: 6.75
logCFU/Swab ([2]; 50° C.): 6.80 logCFU/Swab and 6.90 logCFU/Swab
CFU/Swab ([2]; 50° C.): 6,300,000 CFU/Swab and 3,800,000 CFU/Swab and 7,900,000 CFU/Swab and 5,400,000 CFU/Swab

OO [50° C. 30 s 3.5% H2O2 10 s catalase, hydrogen peroxide]
bactericidal effect (in words) ([2]; 50° C.): no effect
Average [2]: 6.52
logCFU/Swab ([2]; 50° C.): 6.20 logCFU/Swab and 6.60 logCFU/Swab and 6.70 logCFU/Swab
CFU/Swab ([2]; 50° C.): 1,600,000 CFU/Swab and 4,200,000 CFU/Swab and 4,000,000 CFU/Swab and 3,000,000 CFU/Swab and 5,000,000 CFU/Swab
Log reduction ([2]; versus inoculated untreated control (average 6.66)): 0.14

OO [50° C. 30 s 35% H2O2 10 s catalase, hydrogen peroxide]
Average [2]: 2.30
logCFU/Swab ([2]; 50° C.): 1.60 logCFU/Swab and 1.30 logCFU/Swab
log inactivation per 10 seconds of treatment ([2]; rate of kill per unit time, 50° C.): 1.45 log per 10 seconds
CFU/Swab ([2]; 50° C.): 40 CFU/Swab and 570 CFU/Swab and 20 CFU/Swab and 270 CFU/Swab and 2700 CFU/Swab

OO [H2O2 Control, hydrogen peroxide]
CFU/Swab [3]: 5,200,000 CFU/Swab

catalase [Catalase Control]
logCFU/Swab ([3]; log of surviving count per replicate (1-5)): 6.40 logCFU/Swab
CFU/Swab [3]: 2,500,000 CFU/Swab
